Data on one compound can be found in US20130345061A1 (priority 2011, published 2013).

Each structure is given as a SMILES string. Where “and” joins values, the source holds several entries; their conditions need not be identical. Identical values can stand only once. Like-named read-outs stand apart in the source and are kept apart here.

The test system of the test is Pseudomonas syringae pv. porri. The test is classed as in vivo. To be noted: for % infection / Total number of positive leaves per object: repeats A and B.
[1] abbreviates: wetting agent 0, leek, natural washing off 15 mm, reading after 8 weeks.
[2] abbreviates: wetting agent (emulsion according to the invention) 0.25%, CuSO4 6 g/L.
The mark [3] stands for this setting: wetting agent (emulsion according to the invention) 0.50%, CuSO4 6 g/L.
The mark [4] stands for this setting: wetting agent (emulsion according to the invention) 1.00%, CuSO4 6 g/L.

For the compound `O=S(=O)([O-])[O-].[Cu+2]` [CuSO4, copper sulfate], the “significant difference to reference product Phyton 27 (statistical test)” value (copper sulfate with the wetting agent at 0.5% or 1%) is listed as “equivalent to the reference product”. Also, the “% infection” value reads like this: under setting [1], 52% and 49%; under setting [2], 35% and 37%; under setting [3], 31%; under setting [4], 25% and 27%. Also, the “Total number of positive leaves per object” value was 29 under setting [1]; 18 and 17 under setting [2]; 17 and 16 under setting [3]; 13 and 15 under setting [4]. For the same compound, the “leaves attacked / level of infection per mode” value (without wetting agent, value for the whole mode) was “more than 50%”.
